Source: US20190119284A1, “ErbB Inhibitors and Uses Thereof” (The Regents of the University of California, priority 2016, published 2019)

What was measured:
FLT-3 = target: T1, FLT-3 (Homo sapiens, UniProt P36888); test: Nanosyn in vitro kinase profiling: FLT-3; assay type: biochemical; conditions: for inhibition at 1 µM: compound at 1 μM
T1 sequence (P36888 27-993): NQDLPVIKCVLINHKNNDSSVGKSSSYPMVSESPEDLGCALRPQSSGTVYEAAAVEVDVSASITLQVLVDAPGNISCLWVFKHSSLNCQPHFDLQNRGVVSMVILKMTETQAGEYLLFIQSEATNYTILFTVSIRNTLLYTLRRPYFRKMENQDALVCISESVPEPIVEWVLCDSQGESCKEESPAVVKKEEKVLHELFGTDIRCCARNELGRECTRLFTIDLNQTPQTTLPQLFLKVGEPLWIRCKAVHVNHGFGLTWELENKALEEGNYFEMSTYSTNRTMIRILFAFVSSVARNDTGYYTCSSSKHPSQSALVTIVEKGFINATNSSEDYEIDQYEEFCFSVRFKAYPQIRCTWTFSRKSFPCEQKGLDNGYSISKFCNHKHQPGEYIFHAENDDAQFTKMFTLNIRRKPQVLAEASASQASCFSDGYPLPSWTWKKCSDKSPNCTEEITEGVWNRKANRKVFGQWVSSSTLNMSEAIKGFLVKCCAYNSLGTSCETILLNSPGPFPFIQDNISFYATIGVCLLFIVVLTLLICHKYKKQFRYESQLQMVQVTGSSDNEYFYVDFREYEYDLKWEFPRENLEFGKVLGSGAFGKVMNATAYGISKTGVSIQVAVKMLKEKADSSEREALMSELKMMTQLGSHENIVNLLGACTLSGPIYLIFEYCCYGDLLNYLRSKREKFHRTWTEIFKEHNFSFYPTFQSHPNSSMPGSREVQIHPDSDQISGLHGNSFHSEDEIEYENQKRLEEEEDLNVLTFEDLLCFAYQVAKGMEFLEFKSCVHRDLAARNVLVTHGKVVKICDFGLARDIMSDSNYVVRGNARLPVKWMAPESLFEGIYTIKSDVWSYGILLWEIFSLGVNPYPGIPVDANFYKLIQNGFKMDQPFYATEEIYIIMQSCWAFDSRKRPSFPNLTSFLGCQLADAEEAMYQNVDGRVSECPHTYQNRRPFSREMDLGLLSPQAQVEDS
Method: (§1) This was confirmed by in vitro profiling against a panel of kinases, with compound 2 only showing potent inhibition of EGFR and Ab1 (Table 2).
(§2) In vitro Kinome Screen. In vitro profiling of compound 2 at 100 nM was conducted by Nanosyn.

P38-ALPHA = P38-ALPHA (Homo sapiens, UniProt Q16539); test: Nanosyn in vitro kinase profiling: P38-ALPHA; assay type: biochemical; conditions: for inhibition at 1 µM: compound at 1 μM
Sequence of P38-ALPHA (Q16539 whole entry): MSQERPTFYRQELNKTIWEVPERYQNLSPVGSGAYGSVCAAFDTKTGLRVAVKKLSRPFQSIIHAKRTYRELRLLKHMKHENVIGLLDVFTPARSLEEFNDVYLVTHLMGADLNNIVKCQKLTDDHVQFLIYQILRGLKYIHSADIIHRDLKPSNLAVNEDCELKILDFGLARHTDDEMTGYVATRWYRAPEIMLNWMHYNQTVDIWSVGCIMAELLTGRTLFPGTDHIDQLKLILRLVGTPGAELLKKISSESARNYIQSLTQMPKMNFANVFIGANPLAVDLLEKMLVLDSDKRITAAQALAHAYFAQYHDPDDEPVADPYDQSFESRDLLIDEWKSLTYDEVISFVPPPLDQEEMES
Method: as §1, §2

MET = MET (Homo sapiens, UniProt P08581); test: Nanosyn in vitro kinase profiling: MET; assay type: biochemical; conditions: for inhibition at 1 µM: compound at 1 μM
Sequence of MET (P08581 25-1390): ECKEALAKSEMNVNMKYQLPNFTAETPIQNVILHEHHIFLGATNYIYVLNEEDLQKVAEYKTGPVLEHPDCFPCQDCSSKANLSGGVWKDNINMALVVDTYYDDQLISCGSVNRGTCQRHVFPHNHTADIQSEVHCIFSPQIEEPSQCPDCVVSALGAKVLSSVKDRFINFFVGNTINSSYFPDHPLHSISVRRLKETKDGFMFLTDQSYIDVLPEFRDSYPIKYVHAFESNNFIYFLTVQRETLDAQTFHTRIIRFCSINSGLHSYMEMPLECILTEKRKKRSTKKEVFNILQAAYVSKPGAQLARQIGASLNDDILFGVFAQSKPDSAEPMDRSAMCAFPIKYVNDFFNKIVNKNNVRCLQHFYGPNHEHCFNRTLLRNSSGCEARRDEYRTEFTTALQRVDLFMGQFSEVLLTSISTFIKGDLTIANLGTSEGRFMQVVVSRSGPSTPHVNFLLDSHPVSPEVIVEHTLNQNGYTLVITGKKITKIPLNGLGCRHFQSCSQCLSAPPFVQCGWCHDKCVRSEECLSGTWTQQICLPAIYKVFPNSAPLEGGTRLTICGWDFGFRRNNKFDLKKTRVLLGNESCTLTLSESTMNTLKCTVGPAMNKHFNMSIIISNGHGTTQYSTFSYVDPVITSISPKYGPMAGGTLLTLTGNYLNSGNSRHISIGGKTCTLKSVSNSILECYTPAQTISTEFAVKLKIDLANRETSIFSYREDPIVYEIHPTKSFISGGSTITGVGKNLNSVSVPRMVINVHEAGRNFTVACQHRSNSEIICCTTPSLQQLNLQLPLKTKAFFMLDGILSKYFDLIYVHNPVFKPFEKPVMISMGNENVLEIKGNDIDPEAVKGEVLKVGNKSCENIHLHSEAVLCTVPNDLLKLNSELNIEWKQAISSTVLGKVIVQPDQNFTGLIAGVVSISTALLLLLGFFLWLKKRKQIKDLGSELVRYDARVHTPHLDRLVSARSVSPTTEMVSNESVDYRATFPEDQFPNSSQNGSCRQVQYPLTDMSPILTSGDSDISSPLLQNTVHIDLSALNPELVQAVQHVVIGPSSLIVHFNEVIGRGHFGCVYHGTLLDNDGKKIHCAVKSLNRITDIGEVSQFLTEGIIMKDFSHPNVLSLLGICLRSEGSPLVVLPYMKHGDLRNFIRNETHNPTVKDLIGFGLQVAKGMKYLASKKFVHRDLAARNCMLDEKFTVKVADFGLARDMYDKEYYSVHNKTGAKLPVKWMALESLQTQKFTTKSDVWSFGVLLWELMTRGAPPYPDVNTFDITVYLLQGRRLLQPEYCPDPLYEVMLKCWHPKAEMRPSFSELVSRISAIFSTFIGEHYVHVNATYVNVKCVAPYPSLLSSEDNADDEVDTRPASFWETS
Method: as §1, §2

JNK2 = JNK2 (Homo sapiens, UniProt P45984); test: Nanosyn in vitro kinase profiling: JNK2; assay type: biochemical; conditions: for inhibition at 1 µM: compound at 1 μM
Sequence of JNK2 (P45984 whole entry, species assumed): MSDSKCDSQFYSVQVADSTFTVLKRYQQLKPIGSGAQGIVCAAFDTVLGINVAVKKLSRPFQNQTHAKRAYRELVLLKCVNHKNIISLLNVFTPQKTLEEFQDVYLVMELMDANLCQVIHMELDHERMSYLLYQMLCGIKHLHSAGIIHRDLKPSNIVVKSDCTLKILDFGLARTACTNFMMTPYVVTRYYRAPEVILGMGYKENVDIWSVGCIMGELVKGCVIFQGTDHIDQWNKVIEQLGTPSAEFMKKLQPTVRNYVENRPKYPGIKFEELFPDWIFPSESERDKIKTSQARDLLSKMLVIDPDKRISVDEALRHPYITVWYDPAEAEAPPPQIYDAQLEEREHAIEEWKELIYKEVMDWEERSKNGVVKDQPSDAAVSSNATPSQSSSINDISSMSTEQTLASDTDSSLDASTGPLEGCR
Method: as §1, §2

[1] = tested on: HER2/HER3 heterodimer signaling in MCF-7 cells; test: HER2/HER3 signaling in MCF-7 cells, pre-treat vs simultaneous NRG addition; assay type: cell-based
Method: FIGS. 2A-2D. […] FIG. 2B: NRG rescues the 72 h proliferation of CW-2 cells, which contain an activating mutation in HER3 (E928G), from HER2 inhibitors (mean±SD, n=3).
FIG. 17. MCF-7 cells were serum starved for 24 h and then either treated with compound 3 for 15 min followed by a 15 min NRG stimulation (15 min pre-treat), or compound 3 and NRG were added simultaneously for 15 min (simultaneous addition).

[2] = tested on: HER2YF/HER3E928G (2YF/3EG) Ba/F3 cells; test: Ba/F3 proliferation assay, 2YF/3EG +/- NRG; assay type: cell-based; conditions: + NRG vs no NRG
From the text: Consistent with the results in the HER2 overexpressing cell lines, CW-2 cells that harbor a HER3-activating mutation were equally sensitive to compound 3+/−NRG in both proliferation and signaling assays (FIGS. 6A-6B). […] To further evaluate the potential of compound 3 against HER2 mutants within a HER2/HER3 heterodimer we transduced wt HER3 containing Ba/F3 cells with reported HER2 oncogenic mutants in the HER2YF construct.
For HER2YF/3EG Ba/F3 cells were selected according to the protocol for the HER2YF/3TM Ba/F3's with the exception that no NRG was supplemented in the media during IL-3 independent selection.
Proliferation Assays. For adherent cell lines, cells were plated onto opaque white 96 well plates (Greiner cat #655083) and allowed to adhere overnight. The following day media was changed to fresh media that contained either DMSO or the indicated concentration of drug plus NRG (50 ng/mL final concentration) as indicated. Plates were incubated at 37° C. for 72 h and proliferation was read out using Cell Titer Glo (Promega) according to the manufacturer's protocol. For Ba/F3 cell proliferation, cells, drug dilution, and any necessary growth factors (10 ng/mL IL-3 or 6.25 ng/mL NRG) were combined in a well of a 96 well plate. Plates were incubated at 37° C. for 48 h and proliferation was read out using Cell Titer Glo according to the manufacturer's protocol. For all normalized assays, proliferation was normalized to the DMSO control condition. All graphs were plotted in GraphPad Prism 6 and fit with a non-linear regression of the log(inhibitor) vs response with a variable slope where shown. All graphs are averages (+/−standard deviation) of biological triplicates each performed in technical triplicate unless otherwise noted. If only one biological replicate was performed standard deviations were derived from the technical replicates.

[3] = tested on: HER2 and HER3 signaling in NCI-H1781 cells; test: HER2 and HER3 signaling in NCI-H1781 cells (immunoblot); assay type: cell-based; conditions: NCI-H1781 cells (HER2 kinase domain insertion); 15 min after drug
Method: Immunoblotting. Cells were grown in 6 well plates and treated according to the indicated conditions at which point the media was aspirated, cells were washed with 1 mL of cold PBS, which was then aspirated and the plates were frozen at −80° C. The frozen cells were thawed on the plates in a buffer containing 50 mM Tris pH 7.5, 150 mM NaCl, 1 mM EDTA, and 1% Triton X-100 supplemented with 1× phosphatase (PhoSTOP, Roche) and 1× protease (complete-mini tablets, Roche) inhibitors. Lysates were scraped, transferred to Eppendorf tubes, and cleared by centrifugation at 20,000×g for 20 min at 4° C. The clarified lysates were transferred to chilled, clean tubes, and normalized for protein concentration by Bradford (Bio-Rad). The normalized lysates were diluted with Laemmli loading buffer, and 10 μg of total protein was run on a 4-12% gradient gel (Invitrogen), which was then transferred to […] nitrocellulose (Bio-Rad) and analyzed using the indicated primary antibodies according to the manufacturer's recommendations. Primary antibodies were detected using IRDye secondary antibodies (Li-Cor) according to the manufacturer's recommendations and scanned on an Odyssey imager (Li-Cor). Scanned images were cropped and assembled in Adobe Illustrator 6.

Compound | inhibition at 0.1 µM (FLT-3; compound at 100 nM) [%] | inhibition at 1 µM (FLT-3) [%] | inhibition at 0.1 µM (P38-ALPHA; compound at 100 nM) [%] | inhibition at 1 µM (P38-ALPHA) [%] | inhibition at 0.1 µM (MET; compound at 100 nM) [%] | inhibition at 1 µM (MET) [%] | inhibition at 0.1 µM (JNK2; compound at 100 nM) [%] | inhibition at 1 µM (JNK2) [%] | shift in ability to inhibit signaling +/- pre-incubation ([1]; MCF-7, 15 min pre-treat vs simultaneous NRG) | reduction of sensitivity on addition of NRG [2] | inhibition of HER2/HER3 signaling [3] | efficacy on signaling, 15 min pre-treat vs simultaneous addition with NRG ([1]; MCF-7, serum starved 24 h)
COc1ccc(-c2ccco2)cc1Nc1ncnc2[nH]nc(-c3ccco3)c12 [compound 2, 3-(furan-2-yl)-N-(5-(furan-2-yl)-2-methoxyphenyl)-1H-pyrazolo[3,4-d]pyrimidin-4-amine] | 60 | 89.4 | 6.61 | 12.9 | 2.04 | 10.1 | 1.07 | 6.62 | – | – | – | –
COc1ccc(-c2ccoc2)cc1Nc1ncnc2[nH]cc(-c3cc[nH]n3)c12 [compound 3, N-(5-(furan-3-yl)-2-methoxyphenyl)-5-(1H-pyrazol-3-yl)-7H-pyrrolo[2,3-d]pyrimidin-4-amine] | – | 78 | – | 2 | – | 16 | – | 7 | little to no shift | less than 5 fold | rapidly and fully inhibited | –
CS(=O)(=O)CCNCc1ccc(-c2ccc3ncnc(Nc4ccc(OCc5cccc(F)c5)c(Cl)c4)c3c2)o1 [lapatinib] | – | – | – | – | – | – | – | – | – | 55 fold | unable to fully inhibit signaling | reduced efficacy of lapatinib when simultaneously added with NRG
